Data: patent publication EP0837870B1, “SYNTHETIC MODIFICATION TO SPINOSYN COMPOUNDS” (Dow AgroSciences LLC, priority 1995, dated 1997)

Columns and labels:
Format in all cases: in vivo
[1] = system: tobacco budworm (Heliothis virescens); assay: Activity against tobacco budworm (TBW), sprayed diet cups with eggs; conditions: for mortality at 400 µg/mL: Heliothis virescens, 144 h
Procedure: (§1) In conducting evaluations of insecticidal activity, each test compound was formulated as a 400 ppm solution, and this solution was then diluted with water to give lesser concentrations. The 400 ppm solution was prepared by combining 19.2 mL of .05% solution of Tween 20 (polyoxyethylene (20) sorbitan monolaurate) in water with a solution of 8 mg of the compound in .8 mL of acetone/EtOH (9/1).
Activity against tobacco budworm (Heliothis virescens) was evaluated as follows. A general purpose lepidoptera artificial diet was diluted to half strength with a 5% non nutritive agar. 8 mL of this diet material was dispensed into each one ounce diet cup. One hour prior to treatment 18 to 20 eggs were dispensed onto the diet surface. The cups were then sprayed with formulated material through a flat-fan nozzle. […] Treated cups were air dried prior to sealing with plastic caps. The cups were held for 6 days at room temperature. Activity was then rated based on the total number of live and dead larvae, and on the size of live larvae.

[2] = system: Stomoxys calcitrans (stable fly); assay: Adult stable fly test, serum-saturated dental wick; conditions: readings at 24 and 48 hours, which one is reported is not stated; for Percentage of ASF killed at 10 ppm: 10 ppm in bovine serum
Procedure: (§2) The compound to be evaluated was dissolved in 1 part acetone/1 part ethanol to provide a stock solution of the compound at a concentration of 5,000 ppm; this solution was shaken for 15 minutes on a sonicator. Portions of the stock solution were placed in 15 ml test tubes, and portions of bovine serum were added to provide the desired dilution of the test compound. A dental wick was placed in each test tube and the serum allowed to saturate the wick.
For the adult stable fly test, the saturated wick was placed on a filter paper in a petri dish, and approximately 10 chilled live, hungry stable flies were placed on the center of the dish bottom. The dish was covered and allowed to incubate at 27°C and 60% relative humidity for 48 hours. Mortality readings were made at each of 24 and 48 hours, and adjusted for any mortality in the vehicle control to determine percent efficacy against adult stable fly.

[3] = system: Phormia regina (blow fly); assay: Blow fly larvae test, serum-saturated dental wick; conditions: 10 ppm in bovine serum, 24 and 48 hours, which one is reported is not stated
Procedure: as §2
For the blow fly test, approximately 20 blow fly larvae were placed onto the top center of the saturated dental wick, and the test tube was plugged with cotton and incubated at 27°C and 70% humidity for 24 and 48 hours. Larval mortality counts were then made, and adjusted for any mortality in the vehicle control, to determine percent efficacy against blow fly.

[4] = system: two spotted spider mite (Tetranychus urticae); assay: Activity against two spotted spider mite (TSSM), sprayed infested squash plants; conditions: RATE 400 (ppm), three days after treatment
Procedure: as §1
Activity against cotton aphid (Aphis gossypii) and two spotted spider mite (Tetranychus urticae) was evaluated as follows. Golden crookneck squash plants were grown to the expanded cotyledon stage (about 6 to 8 days). The plants were infested with cotton aphids and two spotted spider mites 16 to 24 hours before application of the test material by transfer of infested foliage cut from a stock colony. Immediately prior to spray application of the test material the transfer foliage is removed from the squash plants. The test is run using concentrations of 400 ppm and 50 ppm. The plants are sprayed with test solution using an atomizing sprayer at 17 psi. Both surfaces of the leaves are covered until runoff, and then allowed to dry. Activity of each compound was determined three days after treatment. Activity was rated as a percent based on the mites/aphids present in plants sprayed with solvent alone.

| SMILES | mortality at 400 µg/mL ([1]; RATE 400 (ppm), 6 days) [%] | Percentage of ASF killed at 10 ppm [2] [%] | Percentage of LBF killed at 10 ppm [3] [%] | % MORTALITY ([1]; RATE 400 (ppm), 6 days) [%] | also measured |
| --- | --- | --- | --- | --- | --- |
| CC[C@H]1CCC[C@H](O[C@H]2CC[C@H](N(C)C)[C@@H](C)O2)[C@@H](C)C(=O)C2=C[C@H]3[C@@H]4C[C@H](O[C@@H]5O[C@@H](C)[C@H](OC)[C@@H](OC)[C@H]5OC)C[C@H]4[C@H](Br)[C@@H](OC(C)=O)[C@H]3[C@@H]2CC(=O)O1 [Example F4a, (5S,6S)-5-Acetoxy-6-bromo Spinosyn A] | 100 | 90 | <50 | – | – |
| CC[C@H]1CCC[C@H](O[C@H]2CC[C@H](N(C)C)[C@@H](C)O2)[C@@H](C)C(=O)C2=C[C@H]3[C@@H]4C[C@H](O[C@@H]5O[C@@H](C)[C@H](OC)[C@@H](OC)[C@H]5OC)C[C@H]4[C@@H](Br)[C@H](OC(C)=O)[C@H]3[C@@H]2CC(=O)O1 [Example F4b, (5R,6R)-5-Acetoxy-6-bromo-5,6-dihydro Spinosyn A] | 100 | 60 | < 50 | – | – |
| CCC1CCCC(OC2CCC(N(C)C)C(C)O2)C(C)C(=O)C2=CC3C4CC(OC5OC(C)C(OC)C(OC)C5OC)CC4[C@@H]4O[C@@H]4C3C2CC(=O)O1 (stereo partly drawn) [Example F7b, (5R,6S)-Epoxy Spinosyn A] | – | 100 | 100 | 100 | – |
| CC[C@H]1CCC[C@H](O[C@H]2CC[C@H](N(C)C)[C@@H](C)O2)[C@@H](C)C(=O)C2=C[C@H]3[C@@H]4C[C@H](O[C@@H]5O[C@@H](C)[C@H](OC)[C@@H](OC)[C@H]5OC)C[C@H]4[C@@H](O)[C@@H](O)[C@H]3[C@@H]2CC(=O)O1 [Example F2, (5S,6R)-5,6-Dihydroxy-5,6-dihydro Spinosyn A] | 100 | <50 | <50 | – | – |
| CCC1CCCC(OC2CCC(N(C)C)C(C)O2)C(C)C(=O)C2=CC3C4CC(OC5OC(C)C(OC)C(OC)C5OC)CC4[C@@H](Br)[C@H](OCCO)C3C2CC(=O)O1 (stereo partly drawn) [Example F1, (5R,6R)-5-(2-Hydroxyethoxy)-6-bromo Spinosyn A] | – | 60 | 90 | 100 | – |
| CC[C@H]1CCC[C@H](O)[C@@H](C)C(=O)C2=C[C@H]3[C@@H]4C[C@H](O[C@@H]5O[C@@H](C)[C@H](OC)[C@@H](OC)[C@H]5OC)C[C@H]4[C@@H](Br)[C@H](OCCO)[C@H]3[C@@H]2CC(=O)O1 [Example E1, (5R,6R)-5-(2-Hydroxyethoxy)-6-bromo Spinosyn A 17-Psa] | 100 | – | <50 | – | mortality at 400 µg/mL ([4]; Tetranychus urticae, 72 h): 60% |
| CC[C@H]1CCC[C@H](O[C@H]2CC[C@H](N(C)C)[C@@H](C)O2)[C@@H](C)C(=O)[C@H]2C[C@@H]3[C@@H](CC[C@@H]4C[C@@H](O[C@@H]5O[C@@H](C)[C@H](OC)[C@@H](OC)[C@H]5OC)C[C@H]43)[C@@H]2CC(=O)O1 [Example D1, (14S)-5,6,13,14-Tetrahydro Spinosyn A] | – | 100 | <50 | – | % MORTALITY ([1]; RATE 80 (unit not given), 8640 min): 90% |
| CC[C@H]1CCC[C@H](O[C@H]2CC[C@H](N(C)C)[C@@H](C)O2)[C@@H](C)C(=O)C2=C[C@H]3[C@@H]4C[C@H](O[C@@H]5O[C@@H](C)[C@H](OC)[C@@H](OC)[C@H]5OC)C[C@H]4[C@H]4OC(=O)O[C@H]4[C@H]3[C@@H]2CC(=O)O1 [Example F3, (5S,6R)-Spinosyn A carbonate] | – | <50 | <50 | – | % MORTALITY ([1]; RATE 64 (unit not given), 8640 min): 24% |
| CCCOC1C(OC)C(C)OC(OC2CC3CCC4C5CC(=O)OC(CC)CCCC(OC6CCC(N(C)C)C(C)O6)C(C)C(=O)C5=CC4C3C2)C1OC.CCCOC1C(OC)C(C)OC(OC2CC3CCC4C5CC(=O)OC(CC)CCCC(OC6CCC(N(C)C)C(C)O6)C(C)C(=O)C5=CC4C3C2)C1OC.O=C(O)CCCC(=O)O (stereo not drawn) [Example A6, 5,6-Dihydro-3'-O-n-propyl Spinosyn J Hemiglutarate salt] | – | – | – | 100 | % MORTALITY ([4]; 4320 min): 100%; Percentage of ASF killed at 100 ppm ([2]; 100 ppm in bovine serum): 100% |
